Assay results: PubChem BioAssay AID2022 (NMMLSC, 2009)
Calls of active or inactive are those of the source. The rule behind the calls is not given here.

Molecular target: Cell division control protein 42 homolog (Homo sapiens) (UniProt P60953)
Experiment: inhibition of fluorescent GTP binding to Cdc42 wt – biochemical, bead-based multiplex flow cytometry, additional SAR set, SAR follow-up (AID 2022)
Settings: for Ki: measured here: Ki for Cdc42 wildtype

Chain of Cell division control protein 42 homolog (Homo sapiens) (P60953 whole entry, looked up): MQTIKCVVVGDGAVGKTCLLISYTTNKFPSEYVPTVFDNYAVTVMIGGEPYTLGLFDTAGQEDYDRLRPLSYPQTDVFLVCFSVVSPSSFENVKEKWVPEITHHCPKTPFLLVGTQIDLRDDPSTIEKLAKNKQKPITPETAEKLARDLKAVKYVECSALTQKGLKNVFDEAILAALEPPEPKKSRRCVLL

EC50 | Ki | Structure (SMILES)
> 30 µM (inactive) |  | O=C1C(c2c(O)[nH]c3ccc(Br)cc23)=Nc2ccccc21
 | 2.37 µM | COc1ccc(-c2c(C#N)c(N)n(S(C)(=O)=O)c2C(=O)c2ccccc2)cc1Br
 | 3.51 µM | CC(C)Cc1ccc([C@H](C)C(=O)O)cc1
> 30 µM (inactive) |  | O=C1C(c2c(O)[nH]c3ccccc23)=Nc2ccccc21
> 30 µM (inactive) |  | O=Nc1c(-c2c(O)[nH]c3ccc(Br)cc23)[nH]c2ccccc12
> 30 µM (inactive) |  | O=Nc1c(-c2c(O)[nH]c3c(Br)cccc23)[nH]c2ccccc12
inactive | 5.93 µM | O=Nc1c(-c2c(O)[nH]c3c(F)cccc23)[nH]c2ccccc12
> 30 µM (inactive) |  | O=Nc1c(-c2c(O)[nH]c3ccccc23)[nH]c2ccccc12
> 30 µM (inactive) |  | O=C1C(c2c(O)[nH]c3c(F)cccc23)=Nc2ccccc21
> 30 µM (inactive) |  | O=C1C(c2c(O)[nH]c3c(Br)cccc23)=Nc2ccccc21
 | 4.81 µM | COc1ccc(S(=O)(=O)n2c(N)c(C#N)c(-c3cncc(Br)c3)c2C(=O)c2ccccc2)cc1
 | 1.52 µM | N#Cc1c(-c2ccc(Cl)cc2)c(C(=O)c2ccccc2)n(S(=O)(=O)c2ccc([N+](=O)[O-])cc2)c1N
> 30 µM (inactive) |  | O=Nc1c(-c2c(O)[nH]c3c(Cl)cccc23)[nH]c2ccccc12
inactive | 0.01 µM | O=C1C(c2c(O)[nH]c3c(Cl)cccc23)=Nc2ccccc21
> 30 µM (inactive) |  | O=C1N=c2ccccc2=C1c1[nH]c(=O)[nH]c1O
> 30 µM (inactive) |  | O=C1N=c2ccccc2=C1c1[nH]c(=S)[nH]c1O
